Experimental data from patent publication US10028961B2, “Therapeutically active compounds and their methods of use” (AGIOS PHARMACEUTICALS, INC., priority 2013, dated 2018).

biological target: IDH1 wt/IDH1 R132H heterodimer (Homo sapiens (Human), UniProt O75874, R132H); experiment: In vitro assay for IDH1m R132H inhibitors, IDH1 wt/IDH1 R132H heterodimer, NADPH depletion (diaphorase/resazurin); type: biochemical; conditions: IDH1 wt/IDH1 R132H heterodimer, 300 μM NADP (saturated); read-out: IDH1 wt/R132H NADPH/NADP IC50 saturated
Sequence (O75874 whole entry R132H): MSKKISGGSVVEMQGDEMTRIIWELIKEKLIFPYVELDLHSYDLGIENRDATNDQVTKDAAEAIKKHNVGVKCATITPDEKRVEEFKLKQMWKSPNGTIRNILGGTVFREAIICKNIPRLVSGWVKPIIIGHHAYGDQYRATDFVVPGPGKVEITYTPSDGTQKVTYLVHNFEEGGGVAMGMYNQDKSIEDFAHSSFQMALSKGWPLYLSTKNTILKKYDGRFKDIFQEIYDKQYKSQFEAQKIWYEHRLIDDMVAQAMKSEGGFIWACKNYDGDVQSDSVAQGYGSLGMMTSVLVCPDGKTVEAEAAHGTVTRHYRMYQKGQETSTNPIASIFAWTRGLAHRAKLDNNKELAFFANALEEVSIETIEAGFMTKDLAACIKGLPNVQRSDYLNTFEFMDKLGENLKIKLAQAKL
Sequence (O75874 whole entry, stated change not applied): as the sequence (O75874 whole entry R132H) above, with H132R counted along it
Protocol: The following describes the experimental procedures that can be used to obtain data on columns 2 and 4 of Table 4 and column 2 of Table 5.
In the primary reaction, the reduction of α-KG acid to 2-HG is accompanied by a concomitant oxidation of NADPH to NADP. The amount of NADPH remaining at the end of the reaction time is measured in a secondary diaphorase/resazurin reaction in which the NADPH is consumed in a 1:1 molar ratio with the conversion of resazurin to the highly fluorescent resorufin.
The mixture of compound, enzyme, and cofactor is pre-incubated at room temperature for 1 hr prior to the addition of alpha-ketoglutarate. To perform the secondary reaction, 10 uL of 1× buffer containing 36 μg/ml diaphorase and […] resazurin is added to the primary reaction and incubated for a further 5 minutes at 25° C. […] Compounds or compound dilutions are prepared in 100% DMSO concentration and diluted 1:50 into the final reaction. […] IC50s are determined.
IDH1 or IDH2 wildtype (wt) and mutant heterodimers are expressed and purified by methods known in the art. […] Co-expression of IDH1wt-his and IDH1R132C-flag is carried out in sf9 insect cells. Cells (25 g) are resuspended in 250 ml of 50 mM Tirs, 500 mM NaCl, pH7.4, at 4° C. with stirring. Cells are disrupted with 4 passes through an M-Y110 Micro fluidizer (Microfluidics) set to 500 psi, and then centrifuged at 22,000 rcf for 20 min at 4° C. The supernatant is harvested and loaded at 15 cm/h on a Histrap FF 5*1 ml column (GE) which is equilibrated with 50 mM Tirs, 500 mM NaCl, pH7.4. Host cell contaminants are removed by washing the column with equilibration buffer followed by equilibration buffer containing 20 mM imidazole and 60 mM imidazole to baseline. IDH1wt-his homodimer and IDH1wt-his/IDH1R132C-flag are eluted by equilibration buffer containing 250 mM imidazole. Fractions eluted by 250 mM imidazole are pooled together and loaded at 15 cm/h onto a column pre-packed with 10 ml ANTI-FLAG® M2 Affinity Gel (Sigma), the column is equilibrated with 50 mM Tris, 500 mM NaCl, pH7.4. After washing with equilibration buffer, IDH1wt-his/IDH1R132C-flag heterodimer is eluted by equilibration buffer containing flag peptide (0.2 mg/ml). Aliquots of IDH1wt-his/IDH1R132C-flag are flash frozen in liquid N2 and stored at −80° C. Same conditions are used for the purification of IDH1wt-his/IDH1R132H-flag.

Row | SMILES | IC50 [nM]
1 | N#CC1(c2cc(Nc3nc(NCC4CC4(F)F)nc(-c4cccc(C(F)(F)F)n4)n3)ccn2)CC1 (stereo not drawn) [Compound 362] | 50 to 100

same assay, conditions: IDH1 wt/R132H heterodimer, NADPH/NADP, not saturated

Row | SMILES | IDH1 wt/R132H NADPH/NADP IC50 not saturated
2 | C[C@@H](Nc1nc(N[C@H](C)C2CC2)nc(-c2ccc(Cl)cc2)n1)C1CC1 [Compound 65] | No Fit

same assay, conditions: IDH1 wt/R132H heterodimer, NADPH/NADP, not saturated; read-out: IDH1 wt/R132H NADPH/NADP IC50 not saturated

Row | SMILES | IC50 [nM]
3 | COC(=O)N1CCC(Nc2nc(NC3CCC(F)(F)C3)nc(-c3cccc(C(F)(F)F)n3)n2)C1 (stereo not drawn) [Compound 59] | < 50
4 | C[C@@H](Nc1nc(NC2Cc3ccccc3C2)nc(-c2cccc(C(F)(F)F)n2)n1)C1CC1 [Compound 60] | < 50
5 | CC(C)Nc1nc(NC2CCCCC2)nc(-c2ccncc2)n1 [Compound 62] | 50 to 100
6 | COCC(COC)Nc1nc(N[C@H](C)C2CC2)nc(-c2cccc(C(F)(F)F)n2)n1 [Compound 63] | 50 to 100
7 | C[C@@H](Nc1nc(N[C@H](C)C2CC2)nc(-c2cccc(Cl)c2)n1)C1CC1 [Compound 64] | 50 to 100
8 | C[C@@H](Nc1nc(N[C@H](C)C2CC2)nc(-c2ccccn2)n1)C1CC1 [Compound 93] | > 1000
9 | C[C@@H](Nc1nc(N[C@H](C)C2CC2)nc(-c2ccccc2Cl)n1)C1CC1 [Compound 94] | > 1000
10 | C[C@@H](Nc1nc(N[C@H](C)C2CC2)nc(-c2ccncc2)n1)C1CC1 [Compound 95] | > 1000
11 | CN1CCC(Nc2nc(NC3CCC(F)(F)C3)nc(-c3cccc(C(F)(F)F)n3)n2)C1 (stereo not drawn) [Compound 96] | > 1000
12 | COCCC(C)Nc1nc(N[C@H](C)C2CC2)nc(-c2cccc(C(F)(F)F)n2)n1 (stereo partly drawn) [Compound 233] | < 50
13 | C=Cc1cccc(-c2nc(N[C@H](C)C3CC3)nc(N[C@H](C)C3CC3)n2)n1 [Compound 240] | < 50
14 | CC(C)(O)CNc1nc(Nc2ccnc(C3(C#N)CC3)c2)nc(-c2cccc(C(F)(F)F)n2)n1 [Compound 259] | 100 to 1000
15 | C[C@@H](Nc1nc(N[C@H](C)C2CC2)nc(-c2cccc(C#N)n2)n1)C1CC1 [Compound 269] | 100 to 1000
16 | C[C@H](CO)Nc1nc(N[C@H](C)C2CC2)nc(-c2cccc(C(F)(F)F)n2)n1 [Compound 281] | 100 to 1000
17 | Cc1cccc(-c2nc(NC3CCC(F)(F)CC3)nc(NC3CCC(F)(F)CC3)n2)n1 [Compound 282] | 100 to 1000
18 | C#CCNc1nc(N[C@H](C)C2CC2)nc(-c2cccc(C(F)(F)F)n2)n1 [Compound 284] | 100 to 1000
19 | COC(=O)CCNc1nc(N[C@H](C)C2CC2)nc(-c2cccc(C(F)(F)F)n2)n1 [Compound 286] | 100 to 1000
20 | OC1CCCC1Nc1nc(NC2CCCC2O)nc(-c2cccc(Cl)n2)n1 (stereo not drawn) [Compound 290] | 100 to 1000
21 | FC1(F)CCC(Nc2nc(Nc3cc4ccccc4[nH]3)nc(-c3cccc(C(F)(F)F)n3)n2)C1 (stereo not drawn) [Compound 291] | 100 to 1000
22 | COc1cccc(-c2nc(N[C@H](C)C3CC3)nc(N[C@H](C)C3CC3)n2)n1 [Compound 294] | 100 to 1000

Row | SMILES | IC50 [nM]
23 | COCCOCC(C)Nc1nc(N[C@H](C)C2CC2)nc(-c2cccc(C(F)(F)F)n2)n1 (stereo partly drawn) [Compound 295] | 100 to 1000
24 | Fc1ccc([C@H]2C[C@H](Nc3nc(N[C@H]4C[C@H](c5ccc(F)cc5)C4)nc(-c4cccc(C(F)(F)F)n4)n3)C2)cc1 [Compound 299] | 100 to 1000
25 | C[C@@H](Nc1nc(N[C@H](C)C2CC2)nc(-c2cncc(C(F)(F)F)c2)n1)C1CC1 [Compound 300] | 100 to 1000
26 | C[C@@H](Nc1nc(NCC(C)(C)C(N)=O)nc(-c2cccc(C(F)(F)F)n2)n1)C1CC1 [Compound 303] | > 1000
27 | Cn1ccc(-c2nc(NC3CCC(F)(F)CC3)nc(NC3CCC(F)(F)CC3)n2)n1 [Compound 304] | > 1000
28 | CC(CN1CCOCC1)Nc1nc(N[C@H](C)C2CC2)nc(-c2cccc(C(F)(F)F)n2)n1 (stereo partly drawn) [Compound 306] | > 1000
29 | C[C@@H](Nc1nc(N[C@H](C)C2CC2)nc(-c2cccc(C(N)=O)n2)n1)C1CC1 [Compound 307] | > 1000
30 | COC(=O)c1cccc(-c2nc(N[C@H](C)C3CC3)nc(N[C@H](C)C3CC3)n2)n1 [Compound 310] | > 1000
31 | Cc1cnn(-c2nc(N[C@H](C)C3CC3)nc(N[C@H](C)C3CC3)n2)c1 [Compound 312] | > 1000
32 | Fc1ccc(N2CC(Nc3nc(NC4CCC(F)(F)C4)nc(-c4cccc(C(F)(F)F)n4)n3)C2)cc1 (stereo not drawn) [Compound 313] | > 1000
33 | FC1(F)CCC(Nc2nc(NC3CCC(F)(F)CC3)nc(-c3cc(Cl)ccn3)n2)CC1 [Compound 314] | > 1000
34 | Cn1c(Nc2nc(NC3CCC(F)(F)C3)nc(-c3cccc(C(F)(F)F)n3)n2)cc2ccccc21 (stereo not drawn) [Compound 316] | > 1000
35 | C[C@@H](Nc1nc(N[C@H](C)C2CC2)nc(-c2cccc(C#N)c2)n1)C1CC1 [Compound 320] | > 1000
36 | C[C@@H](Nc1nc(N[C@H](C)C2CC2)nc(-c2cccc(OC(F)(F)F)c2)n1)C1CC1 [Compound 322] | > 1000
37 | C[C@@H](Nc1nc(N[C@H](C)C2CC2)nc(-c2ccnc(C(F)(F)F)c2)n1)C1CC1 [Compound 323] | > 1000
38 | Cc1nc(-c2nc(NC3CCC(F)(F)CC3)nc(NC3CCC(F)(F)CC3)n2)co1 [Compound 324] | > 1000
39 | C[C@@H](Nc1nc(N[C@H](C)C2CC2)nc(-c2cccc(O)n2)n1)C1CC1 [Compound 327] | > 1000
40 | Cc1cc(-c2nc(NC3CCC(F)(F)CC3)nc(NC3CCC(F)(F)CC3)n2)no1 [Compound 329] | > 1000
41 | FC1(F)CCC(Nc2nc(NC3CCC(F)(F)CC3)nc(-c3ccn[nH]3)n2)CC1 [Compound 330] | > 1000
42 | CC(CN1CCCCC1)Nc1nc(N[C@H](C)C2CC2)nc(-c2cccc(C(F)(F)F)n2)n1 (stereo partly drawn) [Compound 331] | > 1000

biological target: IDH2 R140Q (Homo sapiens (Human), UniProt P48735, R140Q); experiment: In vitro assay for IDH2m R140Q inhibitors, cofactor depletion assay; type: biochemical; conditions: IDH2 R140Q enzyme
Sequence (P48735 40-452 R140Q): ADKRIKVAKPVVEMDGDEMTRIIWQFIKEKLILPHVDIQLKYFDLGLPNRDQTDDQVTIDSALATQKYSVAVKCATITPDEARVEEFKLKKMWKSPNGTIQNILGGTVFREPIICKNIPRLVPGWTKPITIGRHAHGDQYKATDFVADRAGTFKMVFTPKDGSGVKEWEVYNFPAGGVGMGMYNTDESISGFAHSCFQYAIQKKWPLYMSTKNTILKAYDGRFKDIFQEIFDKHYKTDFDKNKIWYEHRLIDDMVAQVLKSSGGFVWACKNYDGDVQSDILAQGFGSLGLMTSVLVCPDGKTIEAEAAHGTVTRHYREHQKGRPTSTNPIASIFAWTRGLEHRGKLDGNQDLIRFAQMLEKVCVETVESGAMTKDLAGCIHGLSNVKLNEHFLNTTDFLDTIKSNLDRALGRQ
From the text: The following describes the experimental procedures used to obtain data on column 7 of Table 4.
The reaction is terminated by the addition of a second enzyme, diaphorase, and a corresponding substrate, resazurin. Diaphorase reduces resazurin to the highly fluorescent resorufin with the concomitant oxidation of NADPH to NADP, both halting the IDH2 reaction by depleting the available cofactor pool and facilitating quantitation of the amount of cofactor remaining after a specific time period through quantitative production of an easily detected fluorophore.
The test compound is then incubated for one hour at room temperature with the enzyme; before starting the IDH2 reaction with the addition of 10 μl of substrate mix containing 4 μM NADPH and 1.6 mM α-KG in the buffer described above. After a further 16 hours of incubation at room temperature, the reaction is halted and the remaining NADPH measured through conversion of resazurin to resorufin by the addition of 25 μl Stop Mix (36 μg/ml diaphorase enzyme and 60 μM resazurin; in buffer).

Row | SMILES | IC50 [nM]
43 | Clc1cccc(-c2nc(NC3[C@H]4COC[C@@H]34)nc(NC3[C@H]4COC[C@@H]34)n2)n1 (stereo partly drawn) [Compound 72, N^2,N^4-di((1R,5S)-3-oxabicyclo[3.1.0]hexan-6-yl)-6-(6-chloropyridin-2-yl)-1,3,5-triazine-2,4-diamine] | > 1000
44 | CC(C)(C)CNc1nc(NCC(C)(C)C)nc(-c2cccc(N)n2)n1 [Compound 73, 6-(6-aminopyridin-2-yl)-N^2,N^4-dineopentyl-1,3,5-triazine-2,4-diamine] | < 50
45 | CC(C)CNc1nc(NCC(C)C)nc(-c2cccc(N)n2)n1 [Compound 74, 6-(6-aminopyridin-2-yl)-N^2,N^4-diisobutyl-1,3,5-triazine-2,4-diamine] | < 50
46 | CC(C)CNc1nc(NC2CCOCC2)nc(-c2cccc(C(F)(F)F)n2)n1 [Compound 75] | 50 to 100
47 | FC1(F)CC2(CC(Nc3nc(Nc4ccnc(C(F)(F)F)c4)nc(-c4cccc(C(F)(F)F)n4)n3)C2)C1 [Compound 257] | < 50
48 | CC(C)(O)CNc1nc(Nc2ccnc(C3(C#N)CC3)c2)nc(-c2cccc(C(F)(F)F)n2)n1 [Compound 259] | < 50
49 | CN1CCC(Nc2nc(NC3CCC(F)(F)C3)nc(-c3cccc(C(F)(F)F)n3)n2)C1 (stereo not drawn) [Compound 326] | > 1000
50 | N#CC1(c2cc(Nc3nc(NCC4CC4(F)F)nc(-c4cccc(C(F)(F)F)n4)n3)ccn2)CC1 (stereo not drawn) [Compound 362] | < 50

tested on: U87MG pLVX-IDH2 R140Q-neo cells; experiment: U87MG pLVX-IDH2 R140Q-neo cell based assay, 2-HG by LC-MS; conditions: Homo sapiens, U-87 MG

Row | SMILES | IC50 [nM]
51 | CC(C)Nc1nc(NC2CCCOC2)nc(-c2ccccc2)n1 (stereo not drawn) [Compound 69, N^2-isopropyl-6-phenyl-N^4-(tetrahydro-2H-pyran-3-yl)-1,3,5-triazine-2,4-diamine] | 100 to 1000
52 | C=CCCNc1nc(NCCC=C)nc(-c2ccccc2)n1 [Compound 70] | 50 to 100
53 | c1ccc(-c2nc(NC3C4COCC43)nc(NC3C4COCC43)n2)cc1 (stereo not drawn) [Compound 71] | 50 to 100
54 | Clc1cccc(-c2nc(NC3[C@H]4COC[C@@H]34)nc(NC3[C@H]4COC[C@@H]34)n2)n1 (stereo partly drawn) [Compound 72, N^2,N^4-di((1R,5S)-3-oxabicyclo[3.1.0]hexan-6-yl)-6-(6-chloropyridin-2-yl)-1,3,5-triazine-2,4-diamine] | 50 to 100
55 | CC(C)(C)CNc1nc(NCC(C)(C)C)nc(-c2cccc(N)n2)n1 [Compound 73, 6-(6-aminopyridin-2-yl)-N^2,N^4-dineopentyl-1,3,5-triazine-2,4-diamine] | 50 to 100
56 | CC(C)CNc1nc(NCC(C)C)nc(-c2cccc(N)n2)n1 [Compound 74, 6-(6-aminopyridin-2-yl)-N^2,N^4-diisobutyl-1,3,5-triazine-2,4-diamine] | 50 to 100
57 | CC(C)CNc1nc(NC2CCOCC2)nc(-c2cccc(C(F)(F)F)n2)n1 [Compound 75] | < 50
58 | FC1(F)CC2(CC(Nc3nc(Nc4ccnc(C(F)(F)F)c4)nc(-c4cccc(C(F)(F)F)n4)n3)C2)C1 [Compound 257] | < 50
59 | CC(C)(O)CNc1nc(Nc2ccnc(C3(C#N)CC3)c2)nc(-c2cccc(C(F)(F)F)n2)n1 [Compound 259] | < 50
60 | CN1CCC(Nc2nc(NC3CCC(F)(F)C3)nc(-c3cccc(C(F)(F)F)n3)n2)C1 (stereo not drawn) [Compound 326] | > 1000
